This is an account of results in patent publication US10870647B2, “Imidazopyridine derivative, method for preparing same, and pharmaceutical composition containing same as active ingredient for preventing or treating cancer” (DAEGU-GYEONGBUK MEDICAL INNOVATION FOUNDATION, priority 2016, dated 2020).

Like-named read-outs stand apart in the source and are kept apart here.

Common to all, as to type: cell-based
The test system of assay [1] is MDA-MB-231. As to the kind of experiment: Real time cell proliferation, IncuCyte ZOOM, 72 hours.
Assay [2] deals with M-NFS-60. As to the kind of experiment: Cancer cell proliferation inhibition, CCK-8, 72 hours. The method, then: MTS assay was performed to evaluate the cancer cell proliferation inhibition (cancer cell apoptosis) effect of the compounds of examples of the present invention. Particularly, the assay was performed using the cancer cell lines GIST-T1, GIST-T1/816, GIST-430, GIST-430/654, GIST-R1, GIST-R3, M-NFS-60, RetParental (Ba/F3), Retwt (Ba/F3), RetV804M (Ba/F3), RET (LC2/ad-CDC6), FYN (MCP-1), FYN (FN), MDA-MB-231, Huh7, K562, T315I(Ba/F3), SK-MEL-28 and A375. Cell culture was performed using a medium suitable for each cell line.
M-NFS-60 cell line was cultured in the complete growth medium prepared by adding 10% FBS, 0.05 mM 2-mercaptoethanol and 62 ng of human M-CSF to RPMI. When the confluence reached 80% in T-75 flask, the cells were collected in a 50 ml tube for seeding, followed by centrifugation at 800 rpm for 5 minutes. The cells were suspended in 10 mL of growth medium. The cell number was counted by using a hematocytometer to determine the necessary cell number and the medium volume for seeding. The cells were seeded in a 96-well plate at the density of 20000 cells/well (200 μL/well), followed by stabilization in a 37° C. CO2 incubator, while the compounds of the present invention were prepared. The compounds of the present invention were serially diluted with DMSO at the ratio of 1/3 with setting the maximum concentration at 1968 nM, which were loaded in a new V-bottom 96-well plate, resulting in the preparation of total 11 concentrations including the DMSO control. The cells that had been placed in the incubator were taken out, to which the compounds of the present invention were added (2 μl/well). The plate treated with the compounds was cultured in a 37° C. CO2 incubator for 72 hours. 72 hours later, the plate treated with the compounds was taken out, to which CCK-8 solution was treated (20 μl/well). After well mixing, the plate was further cultured in a 37° C. CO2 incubator for 2 hours. Then, OD450 was measured by using a microplate reader. To obtain accurate results, the wells displaying bubbles were eliminated from the measurement.

In assay [3] the test system is K562. Described as above. An outline of the steps:
(§1)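 A375 cells (2×10^3/well) attached overnight, then received 9 three-fold dilutions (0.0015-10 μM). K562 and Ba/F3-T315I (1×10^4/well) were given 9-point series (3-fold and 5-fold respectively), final 0-10 μM. After 72 h at 37°C, CCK-8 was added for 2 h; blank-subtracted OD450 gave IC50.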

The target in assay [4] is T1, T315I (Ba/F3) (Homo sapiens, UniProt P00519, T315I, cells depend on it).
T1 construct: fused on or other part: P11274 (Breakpoint cluster region protein)
The assay is described as above. As to conditions: read-out: T315I (Ba/F3) IC50. A digest of the protocol:
as §1

The subject of assay [5] is A375. Described as above. An outline of the steps: as §1
For assay [6], the system named is Huh7. Put plainly: Cancer cell proliferation inhibition, MTS assay, 72 hours. As to conditions: Homo sapiens, Huh-7. A digest of the protocol: (§2)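 3,000 cells/well, 24 h pre-culture (37° C, 5% CO2); serial dilution of compound, top 50 μM, DMSO 0.05% v/v; 72 h exposure; MTS/PMS 2 h, OD450. IC50 = concentration giving 50% inhibition relative to DMSO control, n = 3 data sets.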
(Tetrazolium dyes change colour on reduction, which living cells bring about.)

For assay [7], the system named is SK-MEL-28. The assay is described as above. As to conditions: Homo sapiens. A digest of the protocol:
as §2

The test system of assay [8] is RET (LC2/ad-CDC6). The description is as above. The settings on record: 72 h. A digest of the protocol:
as §2

Assay [9] concerns FYN (MCP-1). The description is as above. A digest of the protocol:
as §2

By IC50 is commonly meant the concentration that gives 50% inhibition. A higher IC50 goes with weaker potency. Regarding `Cc1ccc(C(=O)Nc2ccc(CN3CCN(C)CC3)c(C(F)(F)F)c2)cc1C#Cc1cnc2c(Nc3ccc(C(F)(F)F)cc3)cccn12` [Example 19, 4-methyl-N-(4-((4-methylpiperazin-1-yl)methyl)-3-(trifluoromethyl)phenyl)-3-((8-((4-(trifluoromethyl)phenyl)amino)imidazo[1,2-a]pyridin-3-yl)ethynyl)benzamide], the IC50 in assay [1] (Homo sapiens, MDA-MB-231, 72 h) was found to be 3.19 µM; in assay [2], 0.24 µM; in assay [3] (Homo sapiens, K562, 72 h), 0.131 µM; in [5] (Homo sapiens, A-375, 72 h), 4.08 µM; in assay [6], 15.2 µM; in [7], 3.72 µM. The compound further registered an IC50 in assay [8] of less than 10 µM. Moreover, the GI50 in assay [4] was found to be 0.785 µM.
On to `CCN1CCN(Cc2ccc(NC(=O)c3ccc(C)c(C#Cc4cnc5c(Nc6cnn(CCCN(C)C)c6)cccn45)c3)cc2C(F)(F)F)CC1` [Example 33, 3-((8-((1-(3-(dimethylamino)propyl)-1H-pyrazol-4-yl)amino)imidazo[1,2-a]pyridin-3-yl)ethynyl)-N-(4-((4-ethylpiperazin-1-yl)methyl)-3-(trifluoromethyl)phenyl)-4-methylbenzamide], for which the IC50 in assay [1] (Homo sapiens, MDA-MB-231, 72 h) is 0.444 µM; in assay [2], 0.0321 µM; in [3] (Homo sapiens, K562, 72 h), less than 0.001 µM; in [5] (Homo sapiens, A-375, 72 h) it was 0.452 µM; in [6], 0.082 µM; in assay [9] it was 2.04 µM. In addition, in [4], the GI50 came out at 0.156 µM.
Regarding `Cc1ccc(NC(=O)c2ccc(CN3CCN(C)CC3)c(C(F)(F)F)c2)cc1C#Cc1cnc2c(Nc3cnn(C)c3)cccn12` [Example 80, N-(4-methyl-3-((8-((1-methyl-1H-pyrazol-4-yl)amino)imidazo[1,2-a]pyridin-3-yl)ethynyl)phenyl)-4-((4-methylpiperazin-1-yl)methyl)-3-(trifluoromethyl)benzamide], the IC50 in [1] (Homo sapiens, MDA-MB-231, 72 h) is 0.32 µM; in [2] it was 0.0461 µM; in assay [3] (Homo sapiens, K562, 72 h), less than 0.001 µM; in assay [5] (Homo sapiens, A-375, 72 h) it was 0.132 µM; in assay [6] it was 0.089 µM; in [9] it was 1.87 µM. In addition, the GI50 in assay [4] is 0.0824 µM.
In the case of `Cc1ccc(C(=O)Nc2ccc(CN3CCN(C)[C@H](C)C3)c(C(F)(F)F)c2)cc1C#Cc1cnc2c(Nc3cnn(CCCN(C)C)c3)cccn12` [Example 34, (R)-3-((8-((1-(3-(dimethylamino)propyl)-1H-pyrazol-4-yl)amino)imidazo[1,2-a]pyridin-3-yl)ethynyl)-N-(4-((3,4-dimethylpiperazin-1-yl)methyl)-3-(trifluoromethyl)phenyl)-4-methylbenzamide], the IC50 was 1.01 µM in assay [1] (Homo sapiens, MDA-MB-231, 72 h); less than 0.001 µM in [3] (Homo sapiens, K562, 72 h); 0.903 µM in assay [5] (Homo sapiens, A-375, 72 h); 0.07 µM in [6]; 9.83 µM in assay [9]. The GI50 in assay [4] is 0.831 µM.
For the compound `Cc1ccc(C(=O)Nc2ccc(CN3CCC(F)(F)CC3)c(C(F)(F)F)c2)cc1C#Cc1cnc2c(Nc3cnn(C)c3)cccn12` [Example 52, N-(4-((4,4-difluoropiperidin-1-yl)methyl)-3-(trifluoromethyl)phenyl)-4-methyl-3-((8-((1-methyl-1H-pyrazol-4-yl)amino)imidazo[1,2-a]pyridin-3-yl)ethynyl)benzamide], the IC50 is more than 10 µM in assay [1] (Homo sapiens, MDA-MB-231, 72 h); 0.016 µM in [3] (Homo sapiens, K562, 72 h); more than 10 µM in assay [5] (Homo sapiens, A-375, 72 h); 9.52 µM in assay [9]; more than 0.01 µM in assay [8]. The GI50 in assay [4] stood at 0.195 µM.
Take `Cc1ccc(C(=O)Nc2ccc(CN3CCC(N(C)C)C3)c(C(F)(F)F)c2)cc1C#Cc1cnc2c(Nc3cnn(CCCN(C)C)c3)cccn12` (stereo not shown) [Example 35, 3-((8-((1-(3-(dimethylamino)propyl)-1H-pyrazol-4-yl)amino)imidazo[1,2-a]pyridin-3-yl)ethynyl)-N-(4-((3-(dimethylamino)pyrrolidin-1-yl)methyl)-3-(trifluoromethyl)phenyl)-4-methylbenzamide]: the IC50 in assay [1] (Homo sapiens, MDA-MB-231, 72 h) is 1.11 µM; in assay [3] (Homo sapiens, K562, 72 h), less than 0.001 µM; in [5] (Homo sapiens, A-375, 72 h) it was 1.28 µM; in assay [6], 0.066 µM; in assay [9], 1.12 µM. In addition, the GI50 in assay [4] is 0.247 µM.
For “N-(4-((3-(dimethylamino)pyrrolidin-1-yl)methyl)-3-(trifluoromethyl)phenyl)-4-methyl-3-((8-((1-methyl-1H-pyrazol-4-yl)amino)imidazo[1,2-a]pyridin-3-yl)ethynyl)benzamide [Example 55]”, the IC50 in [1] is 0.755 µM; in [3], less than 0.001 µM; in [5], 0.791 µM; in assay [9], 5.6 µM. For the same compound, the GI50 in [4] came out at 0.0975 µM.
`CCN1CCN(Cc2ccc(NC(=O)c3ccc(C)c(C#Cc4cnc5c(Nc6ccc(C)cc6)cccn45)c3)cc2C(F)(F)F)CC1` [Example 25, N-(4-((4-ethylpiperazin-1-yl)methyl)-3-(trifluoromethyl)phenyl)-4-methyl-3-((8-(p-toylamino)imidazo[1,2-a]pyridin-3-yl)ethynyl)benzamide]: the concentration for half-maximal inhibition (IC50) in assay [1] (Homo sapiens, MDA-MB-231, 72 h) is 3.04 µM; in [3] (Homo sapiens, K562, 72 h), 0.052 µM; in assay [5] (Homo sapiens, A-375, 72 h), 3.71 µM; in assay [6], 17.3 µM; in [7], 2.09 µM; in [8] it was less than 1 µM. Moreover, the GI50 in assay [4] worked out at 0.619 µM.
As to `Cc1ccc(NC(=O)Nc2cc(C(C)(C)C)on2)cc1C#Cc1cnc2c(Nc3cnn(C(C)C)c3)cccn12` [Example 84, 1-(5-(tert-butyl)isoxazol-3-yl)-3-(3-((8-((1-isopropyl-1H-pyrazol-4-yl)amino)imidazo[1,2-a]pyridin-3-yl)ethynyl)-4-methylphenyl)urea], the IC50 was more than 10 µM in [1] (Homo sapiens, MDA-MB-231, 72 h); 1.61 µM in assay [2]; 0.09 µM in assay [3] (Homo sapiens, K562, 72 h); 5.04 µM in assay [5] (Homo sapiens, A-375, 72 h); 5.65 µM in assay [6]; 4.46 µM in [7]. This compound showed an IC50 in [8] of 1 µM. Besides, the GI50 in assay [4] came out at 3.07 µM.
With `CCN1CCN(Cc2ccc(NC(=O)c3ccc(C)c(C#Cc4cnc5c(Nc6ccc(C)cn6)cccn45)c3)cc2C(F)(F)F)CC1` [Example 21, N-(4-((4-ethylpiperazin-1-yl)methyl)-3-(trifluoromethyl)phenyl)-4-methyl-3-((8-((5-methylpyridin-2-yl)amino)imidazo[1,2-a]pyridin-3-yl)ethynyl)benzamide], the IC50 in [1] (Homo sapiens, MDA-MB-231, 72 h) is 1.65 µM; in assay [3] (Homo sapiens, K562, 72 h), 0.015 µM; in assay [5] (Homo sapiens, A-375, 72 h), 1.85 µM; in assay [6], 1.85 µM; in [7], 1.48 µM; in [8], less than 0.1 µM. Also, in assay [4], the GI50 was determined as 0.149 µM.
As to `COCCn1cc(Nc2cccn3c(C#Cc4cc(C(=O)Nc5cc(C(C)(C)C(F)(F)F)on5)ccc4C)cnc23)cn1` [Example 58, 3-((8-((1-(2-methoxyethyl)-1H-pyrazol-4-yl)amino)imidazo[1,2-a]pyridin-3-yl)ethynyl)-4-methyl-N-(5-(1,1,1-trifluoro-2-methylpropan-2-yl)isoxazol-3-yl)benzamide], the IC50 came out at 1.3 µM in [1] (Homo sapiens, MDA-MB-231, 72 h); 0.008 µM in [3] (Homo sapiens, K562, 72 h); 1.39 µM in [5] (Homo sapiens, A-375, 72 h); 0.32 µM in assay [9]. Also, in assay [4], the GI50 was found to be 0.0326 µM.
Regarding `Cc1ccc(Nc2cccn3c(C#Cc4cc(C(=O)Nc5ccc(CN6CCN(C)CC6)c(C(F)(F)F)c5)ccc4C)cnc23)cc1` [Example 24, 4-methyl-N-(4-((4-methylpiperazin-1-yl)methyl)-3-(trifluoromethyl)phenyl)-3-((8-(p-toylamino)imidazo[1,2-a]pyridin-3-yl)ethynyl)benzamide], the half-inhibitory concentration (IC50) in [1] (Homo sapiens, MDA-MB-231, 72 h) is 3.6 µM; in [3] (Homo sapiens, K562, 72 h), 0.045 µM; in assay [5] (Homo sapiens, A-375, 72 h), 3.52 µM; in assay [6], 11.3 µM; in [7] it was 2.63 µM; in assay [8], less than 1 µM. The GI50 in [4] worked out at 0.668 µM.
